Square brackets hold non-standard residues; d marks the D form. Peptide text beside a SMILES is read from it. Phe(4-CH2SO3H) = N[C@@H](Cc1ccc(CS(=O)(=O)O)cc1)C(=O)O; Phe(4-NO2) = N[C@@H](Cc1ccc([N+](=O)[O-])cc1)C(=O)O; Phe(4-CH2NH2) = NCc1ccc(C[C@H](N)C(=O)O)cc1; Phe(4-Me) = Cc1ccc(C[C@H](N)C(=O)O)cc1; Ahx = NCCCCCC(=O)O
How the values were obtained:
human ORL1 [1] = target: T1, human ORL1 (Homo sapiens, UniProt P41146); experiment: [3H]nociceptin binding to membranes of CHO cells transfected with human ORL1; conditions: Table 5
T1 construct: expressed in transfected cells; host or cells: CHO cells (G418-selected)
T1 sequence (P41146 whole entry): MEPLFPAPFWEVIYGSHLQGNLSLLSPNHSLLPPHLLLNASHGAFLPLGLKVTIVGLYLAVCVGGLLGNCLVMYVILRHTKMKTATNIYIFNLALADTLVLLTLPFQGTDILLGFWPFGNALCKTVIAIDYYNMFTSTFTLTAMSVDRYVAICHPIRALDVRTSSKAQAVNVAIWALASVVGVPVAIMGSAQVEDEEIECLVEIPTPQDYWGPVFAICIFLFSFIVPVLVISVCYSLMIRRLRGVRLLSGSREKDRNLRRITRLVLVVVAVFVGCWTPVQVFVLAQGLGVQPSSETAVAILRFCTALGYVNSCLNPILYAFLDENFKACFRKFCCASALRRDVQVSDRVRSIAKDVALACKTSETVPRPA

human ORL1 [2] = target: T1, human ORL1; experiment: Stimulation of [35S]GTPγS binding in membranes of CHO cells transfected with human ORL-1; assay type: biochemical; conditions: for Emax: read-out: % Stimulation ± SEM of [35S]GTPγS binding; for EC50 ± SEM, stimulation of [35S]GTPγS binding: Table 6
Experimental: First, CHO cells transfected with human ORL-1 are scraped from tissue culture dishes into 20 mM HEPES, 1 mM EDTA, and then centrifuged at 500×g for 10 minutes. The cells are then re-suspended in this buffer and homogenized using a Polytron Homogenizer.
The cellular homogenate is next centrifuged at 20,000×g for 20 minutes. Following this, the resulting pellet is re-suspended in a buffer containing 20 mM HEPES, 10 mM MgCl2, and 100 mM NaCl, having a resulting pH of 7.4. The suspension is then re-centrifuged at 20,000×g and suspended once more in the above-listed buffer. The pellet may be frozen at −70° C. prior to the final centrifugation. For the binding assay, membranes (10-20 μg protein) are incubated with [^35S]GTPγγS (50 pM), GDP (usually 10 μM), and the desired compound. The total volume of the mixture is 1 ml, which is incubated for 60 min at 25° C.
Following incubation, samples are filtered over glass fiber filters and counted. […]
In these [^35S]GTPγS assays, binding was conducted as described above. EC50 values and percent stimulation were determined using the program Prism.

| Compound | Hill Coefficient (human ORL1 [1]) | Emax (human ORL1 [2]) | EC50 ± SEM, stimulation of [35S]GTPγS binding (human ORL1 [2]) |
| --- | --- | --- | --- |
| CC(=O)NCCCCCC(=O)N[C@@H](Cc1ccc(O)cc1)C(=O)N[C@@H](Cc1ccc(O)cc1)C(=O)N[C@@H](CCCNC(=N)N)C(=O)N[C@@H](Cc1c[nH]c2ccccc12)C(=O)N[C@@H](CCCNC(=N)N)C(N)=O [VII-53-B, Ac-ε-aminocaproyl-Tyr-Tyr-Arg-Trp-Arg-NH2] (Ac-[Ahx]YYRWR-NH2) | 0.86 | 39.5 ± 4% | – |
| CC(=O)N[C@@H](CCCNC(=N)N)C(=O)N[C@@H](Cc1ccc(O)cc1)C(=O)N[C@@H](Cc1ccc(CS(=O)(=O)O)cc1)C(=O)N[C@@H](CCCNC(=N)N)C(=O)N[C@@H](Cc1c[nH]c2ccccc12)C(=O)N[C@@H](CCCNC(=N)N)C(N)=O [VII-75-B, Ac-Arg-Tyr-Phe(4-CH2SO3H)-Arg-Trp-Arg-NH2] (Ac-RY[Phe(4-CH2SO3H)]RWR-NH2) | 0.75 | < 20% | FLAT |
| CC(=O)N[C@@H](CCCNC(=N)N)C(=O)N[C@@H](Cc1ccc([N+](=O)[O-])cc1)C(=O)N[C@@H](Cc1ccc(O)cc1)C(=O)N[C@@H](CCCNC(=N)N)C(=O)N[C@@H](Cc1c[nH]c2ccccc12)C(=O)N[C@@H](CCCNC(=N)N)C(N)=O [VII-23-B, Ac-Arg-Phe(NO2)-Tyr-Arg-Trp-Arg-NH2] (Ac-R[Phe(4-NO2)]YRWR-NH2) | 0.74 | 56.6 ± 20.4% | – |
| CC(=O)N[C@@H](CCCNC(=N)N)C(=O)N[C@@H](Cc1ccc(O)cc1)C(=O)N[C@@H](Cc1ccc(CN)cc1)C(=O)N[C@@H](CCCNC(=N)N)C(=O)N[C@@H](Cc1c[nH]c2ccccc12)C(=O)N[C@@H](CCCNC(=N)N)C(N)=O [VII-79-A, Ac-Arg-Tyr-Phe(4-CH2NH2)-Arg-Trp-Arg-NH2] (Ac-RY[Phe(4-CH2NH2)]RWR-NH2) | 0.89 | < 20% | FLAT |
| CC(=O)N[C@@H](CCCNC(=N)N)C(=O)N[C@@H](Cc1ccc(O)cc1)C(=O)N[C@@H](Cc1ccc(O)cc1)C(=O)NCCCCCC(=O)N[C@@H](Cc1c[nH]c2ccccc12)C(=O)N[C@@H](CCCNC(=N)N)C(N)=O [VII-55-A, Ac-Arg-Tyr-Tyr-ε-aminocaproyl-Trp-Arg-NH2] (Ac-RYY[Ahx]WR-NH2) | 1.12 | 26.6 ± 1.95% | – |
| COc1ccc(C[C@H](NC(=O)[C@H](CCCNC(=N)N)NC(C)=O)C(=O)N[C@@H](Cc2ccc(O)cc2)C(=O)N[C@@H](CCCNC(=N)N)C(=O)N[C@@H](Cc2c[nH]c3ccccc23)C(=O)N[C@@H](CCCNC(=N)N)C(N)=O)cc1 [VII-35-C, Ac-Arg-Tyr(4-Me)-Tyr-Arg-Trp-Arg-NH2] (Ac-RY(Me)YRWR-NH2) | 0.75 | 52.1 ± 0.6% | – |
| CC(=O)N[C@@H](CCCNC(=N)N)C(=O)N[C@@H](Cc1ccc(C)cc1)C(=O)N[C@@H](Cc1ccc(C)cc1)C(=O)N[C@@H](CCCNC(=N)N)C(=O)N[C@@H](Cc1c[nH]c2ccccc12)C(=O)N[C@@H](CCCNC(=N)N)C(N)=O [VII-17-B, Ac-Arg-Phe(4-Me)-Phe(4-Me)-Arg-Trp-Arg-NH2] (Ac-R[Phe(4-Me)][Phe(4-Me)]RWR-NH2) | 1.06 | < 20% | FLAT |
| COc1ccc(C[C@H](NC(=O)[C@H](CCCNC(=N)N)NC(C)=O)C(=O)N[C@@H](Cc2ccc(OC)cc2)C(=O)N[C@@H](CCCNC(=N)N)C(=O)N[C@@H](Cc2c[nH]c3ccccc23)C(=O)N[C@@H](CCCNC(=N)N)C(N)=O)cc1 [VII-37-B, Ac-Arg-Tyr(4-Me)-Tyr(4-Me)-Arg-Trp-Arg-NH2] (Ac-RY(Me)Y(Me)RWR-NH2) | 0.82 | < 20% | FLAT |
| CC(=O)N[C@@H](CCCNC(=N)N)C(=O)N[C@@H](Cc1ccc(C)cc1)C(=O)N[C@@H](Cc1ccc(O)cc1)C(=O)N[C@@H](CCCNC(=N)N)C(=O)N[C@@H](Cc1c[nH]c2ccccc12)C(=O)N[C@@H](CCCNC(=N)N)C(N)=O [VII-15-B, Ac-Arg-Phe(4-Me)-Tyr-Arg-Trp-Arg-NH2] (Ac-R[Phe(4-Me)]YRWR-NH2) | 0.79 | 59.8 ± 16.2% | – |
| β-Nva-Arg-Tyr-Tyr-Arg-Trp-Arg-NH2 (βNva-RYYRWR-NH2) [VII-2-A] | 1.0 | – | FLAT |
